# Measurements published in patent US10039729B2, “Use of kukoamine A and kukoamine B” (Tianjin Chase Sun Pharmaceutical Co., Ltd., priority 2010, dated 2018).
# Experiments:
# RAW264.7 cells [1] = assay: mRNA expression in RAW264.7 cells stimulated by LPS and CpG DNA (real-time PCR); type: cell-based, murine
# Protocol: Cells preparation: Cells suspension was adjusted to 1×10^6/ml in DMEM supplemented with 10% (v/v) NCS; 2 ml of the above suspension was added into 6-well plates and cultured at 37° C. in a 5% CO2 humidified incubator for 2 h; for the purpose of experiment four groups were established: medium group, KB control group, stimulation group and KB treatment group; no reagent was added in medium group; KB control group was added with KB (200 μM); stimulation group was added with LPS (100 ng/ml) and CpG DNA (10 μg/ml); KB treatment group was added with KB (concentrations of 100 and 200 μM) in the meantime of adding LPS and CpG DNA; cells were cultured for 4 h and collected.
# RNA extraction: Supernatant was sucked and discarded; 1 ml tripure was added into each well and resuspended with a pipet to make cells completely lysed; the lysate was transferred into 1.5 ml EP tube and incubated at room temperature for 5 min to ensure completed separation of ribonucleoprotein complex; 0.2 ml chloroform was added into EP tube; tube cap was closed and mixed by inversion for 15 sec; EP tube was incubated at room temperature for 10 min until layering of the liquid in tube, then centrifuged at 12000 g at 4_for 15 min; solution was separated into the three-phase; the upper solution (colorless liquid, approximately 0.4 ml) in EP tube was transferred into a new EP tube (DEPC treated); 0.5 ml isopropyl alcohol was added into EP tubes and the liquid was mixed by inversion for several times; EP tube was incubated at room temperature for 10 min to promote RNA precipitating, and centrifuged at 12000 g at 4_for 10 min; the supernatant was discarded; RNA precipitate was added with 1 ml 75% ethanol, vortex washed, and centrifuged at 12000 g at 4 for 10 min; then the supernatant was discarded; EP tube was dried at room temperature for 15 min to remove excessive ethanol; RNA precipitate was diluted with 20 μl ddH2O treated with DEPC, resuspended by pipetting in and out several times, incubated at 55 to 60 for 10 min, and then stored at −70.
# Reverse transcription: Reverse-transcription reaction mixture (include: Rnase-free H2O, 10 μl; 5×RT buffer, 4 μl; dNTP mixture, 2 μl; RNase inhibitor, 1 μl; Oligo(dT)20, 1 μl; RNA, 1 μl; ReverTra Ace, 1 μl) was prepared on ice bath, mixed, incubated at 42° C. for 1 h and at 99° C. for 5 min, stored at −20.
# PCR amplification: Primers were designed using Primer Premier 5 software by ourselves, and synthesized by Shanghai Sangon Biological Engineering Technology & Services Co., Ltd. The relevant primer sequences are as follows […]
# Results were expressed as CT value, and converted into ratio of β-actin, the internal reference items, according to 2^−ΔΔCT methods. […]
# [2] = test system: murine peritoneal macrophages; assay: mRNA expression of TNF-α and IL-6 in murine peritoneal macrophages stimulated by LPS and CpG DNA; type: cell-based; conditions: 100, 200 μM, dose-dependent
# Excerpt: 16.1 Methods: Influence of KB on the mRNA expression of TNF-α and IL-6 in murine peritoneal macrophages stimulated by LPS and CpG DNA was observed. Methods were the same as embodiment 15.
# RAW264.7 cells [3] = assay: Semi-quantitative RT-PCR of TLR4, TLR9, MyD88 and western blot of NF-κB p65 in RAW264.7 cells; type: cell-based, murine; conditions: KB 200 μM
# Protocol: Reaction mixtures were added into 0.2 ml PCR tubes. The reaction mixture included 1 μl cDNA, 10.0 μl 2×Taq Master Mix, 1 μl upstream primer (10 μM), 1 μl downstream primer (10 μM) and 7 μl RNase-free H2O. PCR programs are as follows:
# Finally, the PCR products were detected by agarose gel electrophoresis; 1% agarose gel was prepared and cast; 5 μl PCR products of each tube were loaded, electrophoresed at 100 v for 30 min; then gel was took out and scanned; the images were analysed by Quantity One software.
# (2) Inhibition of KB on activation of NF-κB p65 in RAW264.7 cells induced by LPS and CpG DNA: Methods are as above; nucleoprotein extraction continued to be incubated for 1 h after sample loading; then, NF-κB p65 in it was assayed using westernblot; the procedure of nucleoprotein extraction and westernblot were consistent with embodiment 23.
compound,measurement,setting,value
"NCCCN(CCCCNCCCNC(=O)CCc1ccc(O)c(O)c1)C(=O)CCc1ccc(O)c(O)c1 [KB, Kukoamine B]","mRNA expressions of TNF-α, IL-6, iNOS and COX-2 up-regulated by CpG DNA","RAW264.7 cells [1]; 100, 200 μM, CpG DNA 10 μg/ml, 4 h, dose-dependent",significantly inhibit the mRNA expressions
same,"mRNA expressions of TNF-α, IL-6, iNOS and COX-2 up-regulated by LPS","RAW264.7 cells [1]; 100, 200 μM, LPS 100 ng/ml, 4 h, dose-dependent",significantly inhibit the mRNA expressions
same,up-regulated expression of TLR4 induced by LPS and CpG DNA,"RAW264.7 cells [1]; KB 100 and 200 μM, RT-PCR",significantly inhibited
same,up-regulated expression of TLR9 induced by LPS and CpG DNA,"RAW264.7 cells [1]; KB 100 and 200 μM, RT-PCR",significantly inhibited
same,mRNA expressions of TNF-α and IL-6 up-regulated by CpG DNA,[2],significantly inhibit the mRNA expressions
same,mRNA expressions of TNF-α and IL-6 up-regulated by LPS,[2],significantly inhibit the mRNA expressions
same,"up-regulated expression of TLR4, TLR9 and MyD88 stimulated by LPS and CpG DNA","RAW264.7 cells [3]; 4 h, semi-quantitative RT-PCR",inhibited up-regulated expression
same,up-regulation of NF-κB p65 in RAW264.7 cell nucleus induced by LPS and CpG DNA,"RAW264.7 cells [3]; LPS 100 ng/ml, CpG DNA 10 μg/ml, western blot",inhibit the up-regulation of NF-κB p65
